The test system of series [1] is Oryza sativa. Description: Safener indices, ratio of compound effect of Oryza sativa (rice) growth rate to relieving activity against bensulfuron-methyl induced injury to Oryza sativa growth rate at 0.1 uM.
Series [2] has as its system Oryza sativa. Kind of series: Effect on Oryza sativa (rice) assessed as growth rate at 1 uM relative to control. Type of series: organism-based. The note with it: in vivo.
Series [3] has as its system Oryza sativa. Description: Relieving activity against bensulfuron-methyl induced injury to Oryza sativa (rice) assessed as growth rate at 1 uM (Rbv = 46 to 53%). Type of series: functional.
Series [4] deals with Oryza sativa. Kind of series: Effect on Oryza sativa (rice) assessed as growth rate at 0.1 uM relative to control. Type of series: organism-based. The note with it: in vivo.
A short description of series [5]: Hydrophobicity, log K of the compound. Type of series: physicochemical. The following applies: octanol/water.
Series [6] concerns Oryza sativa. Description: Effect on Oryza sativa (rice) assessed as growth rate at 10 uM relative to control. The following applies: in vivo. Type of series: organism-based.
The subject of series [7] is Oryza sativa. Kind of series: Safener indices, ratio of compound effect of Oryza sativa (rice) growth rate to relieving activity against bensulfuron-methyl induced injury to Oryza sativa growth rate at 1 uM.
Series [8] concerns Oryza sativa. Kind of series: Relieving activity against bensulfuron-methyl induced injury to Oryza sativa (rice) assessed as growth rate at 0.1 uM (Rbv = 46 to 53%). Type of series: functional.
For series [9], the system named is Oryza sativa. Description: Safener indices, ratio of compound effect of Oryza sativa (rice) growth rate to relieving activity against bensulfuron-methyl induced injury to Oryza sativa growth rate at 10 uM.
Series [10] concerns Oryza sativa. Description: Relieving activity against bensulfuron-methyl induced injury to Oryza sativa (rice) assessed as growth rate at 10 uM (Rbv = 46 to 53%). Type of series: functional.

Consider 15 compounds from ChEMBL document CHEMBL3045406, “Enantioselective Relieving Activity of α-Methylbenzylphenylureas toward Bensulfuron-methyl Injury to Rice (Oryza sativa)” (Biosci Biotechnol Biochem, 1999).

`C[C@H](NC(=O)Nc1cc(Cl)ccc1Cl)c1ccccc1`: the Ratio in the series with Oryza sativa [1] came to 56; with Oryza sativa [7], 69; with Oryza sativa [9], 82. Moreover, the Activity was 99% in the series on Oryza sativa [2]; 85% in the series on Oryza sativa [3]; 100% in the series with Oryza sativa [4]; 100% in the series with Oryza sativa [6]; 79% in the series on Oryza sativa [8]; 91% in the series with Oryza sativa [10]. Further, in series [5], the “log K” value was found to be 0.704.

For the compound `C[C@H](NC(=O)Nc1cc(C(C)(C)C)ccc1C(C)(C)C)c1ccccc1`, the Ratio with Oryza sativa [1] is reported as 8; in the series on Oryza sativa [7] it was 15; in the series with Oryza sativa [9], 46. Further, the Activity amounted to 98% in the series on Oryza sativa [2]; 59% in the series on Oryza sativa [3]; 98% in the series on Oryza sativa [4]; 97% in the series with Oryza sativa [6]; 56% in the series on Oryza sativa [8]; 74% in the series with Oryza sativa [10]. Further, the “log K” value in [5] was 1.001.

Take `C[C@H](NC(=O)Nc1cccc(C(F)(F)F)c1F)c1ccccc1`: the Ratio in the series with Oryza sativa [1] is 51; in the series with Oryza sativa [7], 84; with Oryza sativa [9], 96. Besides, the Activity in the series on Oryza sativa [2] was 98%; in the series on Oryza sativa [3] it was 92%; in the series on Oryza sativa [4], 99%; in the series on Oryza sativa [6] it was 100%; in the series on Oryza sativa [8], 76%; in the series with Oryza sativa [10] it was 98%. Also, in [5], the “log K” value was 0.624.

Take `CCOC(=O)c1cccc(NC(=O)N[C@@H](C)c2ccccc2)c1`: the Ratio in the series on Oryza sativa [1] is 44; in the series on Oryza sativa [7], 70; in the series on Oryza sativa [9] it was 89. Besides, the Activity with Oryza sativa [2] is on record as 99%; in the series with Oryza sativa [3], 85%; in the series on Oryza sativa [4] it was 100%; in the series with Oryza sativa [6], 96%; in the series with Oryza sativa [8] it was 72%; in the series on Oryza sativa [10] it was 95%. Further, the “log K” value in [5] was 0.419.

As for `C[C@H](NC(=O)Nc1ccccc1Br)c1ccccc1`, the Ratio in the series with Oryza sativa [1] was determined as 32; in the series on Oryza sativa [7] it was 74; in the series with Oryza sativa [9], 97. The Activity in the series on Oryza sativa [2] is recorded as 99%; with Oryza sativa [3] it was 87%; in the series on Oryza sativa [4] it was 101%; with Oryza sativa [6], 102%; in the series on Oryza sativa [8], 67%; with Oryza sativa [10], 98%. The “log K” value in series [5] amounted to 0.504.

On to `C[C@H](NC(=O)Nc1ccc(F)cc1)c1ccccc1`, for which the Ratio with Oryza sativa [1] is 7; in the series on Oryza sativa [7] it was 47; in the series with Oryza sativa [9], 74. Besides, the Activity is given as 97% with Oryza sativa [2]; 72% in the series on Oryza sativa [3]; 96% in the series on Oryza sativa [4]; 85% in the series with Oryza sativa [6]; 51% with Oryza sativa [8]; 86% in the series on Oryza sativa [10]. The “log K” value in [5] stood at 0.307.

With `CCCCc1ccc(NC(=O)N[C@@H](C)c2ccccc2)cc1`, the Ratio in the series with Oryza sativa [1] was found to be 21; in the series with Oryza sativa [7], 50; with Oryza sativa [9], 37. The Activity in the series on Oryza sativa [2] was 72%; in the series with Oryza sativa [3], 68%; in the series with Oryza sativa [4], 98%; in the series on Oryza sativa [6] it was 60%; in the series with Oryza sativa [8], 60%; with Oryza sativa [10] it was 56%. In series [5], the “log K” value is recorded as 0.76.

Regarding `C[C@@H](NC(=O)Nc1cccc(I)c1)c1ccccc1`, the Ratio is given as 26 in the series on Oryza sativa [1], 44 in the series with Oryza sativa [7] and 53 in the series with Oryza sativa [9]. Also, the Activity is recorded as 75% with Oryza sativa [2]; 66% in the series with Oryza sativa [3]; 81% with Oryza sativa [4]; 73% in the series with Oryza sativa [6]; 57% with Oryza sativa [8]; 71% in the series on Oryza sativa [10]. In [5], the “log K” value is given as 0.568.

Turning to `C[C@@H](NC(=O)Nc1ccc(Cl)cc1)c1ccccc1`, the values for the Ratio in the series on Oryza sativa [1], in the series on Oryza sativa [7] and in the series on Oryza sativa [9] were 1, 61 and 71, respectively. The Activity in the series with Oryza sativa [2] was determined as 95%; with Oryza sativa [3], 80%; in the series on Oryza sativa [4], 96%; with Oryza sativa [6] it was 87%; with Oryza sativa [8] it was 50%; in the series with Oryza sativa [10], 84%. For the same compound, in [5], the “log K” value is reported as 0.439.

As to `Cc1cccc(NC(=O)N[C@H](C)c2ccccc2)c1`, the Ratio in the series with Oryza sativa [1] is 10; in the series on Oryza sativa [7], 22; with Oryza sativa [9], 29. The Activity with Oryza sativa [2] is on record as 98%; with Oryza sativa [3] it was 60%; in the series on Oryza sativa [4], 100%; in the series with Oryza sativa [6] it was 47%; with Oryza sativa [8], 55%; in the series on Oryza sativa [10] it was 45%. Besides, the “log K” value in series [5] amounted to 0.374.

In the case of `C[C@@H](NC(=O)Nc1ccccc1Br)c1ccccc1`, the Ratio in the series on Oryza sativa [1] amounted to 6; in the series with Oryza sativa [7] it was 20; in the series on Oryza sativa [9], 61. For the same compound, the Activity is recorded as 100% in the series on Oryza sativa [2]; 60% in the series on Oryza sativa [3]; 99% with Oryza sativa [4]; 94% in the series on Oryza sativa [6]; 53% in the series on Oryza sativa [8]; 79% in the series on Oryza sativa [10]. Moreover, the “log K” value in series [5] is recorded as 0.504.

In the case of `C[C@@H](NC(=O)Nc1ccc(C(C)(C)C)cc1)c1ccccc1`, the Ratio in the series with Oryza sativa [1] was 15; in the series with Oryza sativa [7], 35; with Oryza sativa [9], 42. Moreover, the Activity with Oryza sativa [2] is recorded as 88%; in the series on Oryza sativa [3], 64%; in the series on Oryza sativa [4], 100%; with Oryza sativa [6], 53%; in the series on Oryza sativa [8], 58%; with Oryza sativa [10] it was 57%. Further, in series [5], the “log K” value worked out at 0.673.

Turning to `CCOC(=O)c1ccc(NC(=O)N[C@@H](C)c2ccccc2)cc1`, the Ratio with Oryza sativa [1] was determined as 53; in the series with Oryza sativa [7] it was 76; in the series with Oryza sativa [9], 86. The Activity in the series with Oryza sativa [2] was found to be 97%; in the series with Oryza sativa [3], 87%; with Oryza sativa [4] it was 99%; with Oryza sativa [6], 92%; in the series with Oryza sativa [8], 76%; in the series on Oryza sativa [10], 92%. In addition, the “log K” value in series [5] is recorded as 0.415.

Turning to `Cc1cc(F)ccc1NC(=O)N[C@H](C)c1ccccc1`, the Ratio turned out to be 3 in the series with Oryza sativa [1], 9 with Oryza sativa [7] and 48 in the series on Oryza sativa [9]. In addition, the Activity was determined as 100% in the series with Oryza sativa [2]; 57% in the series with Oryza sativa [3]; 100% in the series on Oryza sativa [4]; 94% with Oryza sativa [6]; 54% in the series with Oryza sativa [8]; 74% in the series on Oryza sativa [10]. Moreover, in [5], the “log K” value came out at 0.356.

Turning to `C[C@H](NC(=O)Nc1ccccc1F)c1ccccc1`, the Ratio with Oryza sativa [1] worked out at 47; in the series with Oryza sativa [7] it was 65; in the series with Oryza sativa [9], 68. The Activity in the series on Oryza sativa [2] turned out to be 92%; in the series with Oryza sativa [3] it was 81%; in the series with Oryza sativa [4] it was 98%; with Oryza sativa [6], 65%; with Oryza sativa [8], 73%; in the series on Oryza sativa [10], 78%. Also, the “log K” value in [5] is given as 0.367.
